Test results published in US10662156B2, “Guanidine derivative and medical use thereof” (Toray Industries, Inc., priority 2016, dated 2020).
Where a name gives a salt, the structure may show the parent alone.

Each compound was assayed against recombinant GST fusion MALT1 (human MALT1) (Homo sapiens (Human), UniProt Q9UDY8) (assay: Evaluation of inhibition of protease activity of MALT1 (cleavage of fluorescent peptide substrate Ac-LRSR-AMC)). Details: substrate Ac-LRSR-AMC 20 μmol/L, 30° C. for 80 minutes.
Chain of recombinant GST fusion MALT1 (human MALT1) (Q9UDY8 whole entry, the tested form may be a part): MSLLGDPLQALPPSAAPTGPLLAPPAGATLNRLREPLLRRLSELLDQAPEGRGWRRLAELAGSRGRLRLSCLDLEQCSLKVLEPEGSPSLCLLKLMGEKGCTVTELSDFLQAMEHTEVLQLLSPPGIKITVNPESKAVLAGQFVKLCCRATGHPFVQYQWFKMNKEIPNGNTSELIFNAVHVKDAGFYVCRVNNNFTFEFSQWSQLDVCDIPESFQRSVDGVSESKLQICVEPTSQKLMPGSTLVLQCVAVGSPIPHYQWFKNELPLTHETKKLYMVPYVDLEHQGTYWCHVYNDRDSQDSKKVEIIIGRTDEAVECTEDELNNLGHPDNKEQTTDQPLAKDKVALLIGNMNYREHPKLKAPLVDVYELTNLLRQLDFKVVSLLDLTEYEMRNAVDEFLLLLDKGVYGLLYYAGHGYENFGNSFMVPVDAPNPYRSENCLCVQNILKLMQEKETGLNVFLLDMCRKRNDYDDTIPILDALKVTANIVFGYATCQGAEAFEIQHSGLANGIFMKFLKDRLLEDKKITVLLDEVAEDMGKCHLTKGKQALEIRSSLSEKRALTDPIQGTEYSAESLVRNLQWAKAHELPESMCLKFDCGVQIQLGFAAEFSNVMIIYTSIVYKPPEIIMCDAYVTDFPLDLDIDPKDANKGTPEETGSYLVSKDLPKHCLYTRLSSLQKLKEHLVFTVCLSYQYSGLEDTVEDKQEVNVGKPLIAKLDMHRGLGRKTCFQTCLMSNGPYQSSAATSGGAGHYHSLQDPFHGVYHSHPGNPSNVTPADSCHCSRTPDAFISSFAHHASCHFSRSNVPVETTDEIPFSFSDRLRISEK
Type: biochemical
Protocol: The guanidine derivative (I) or the pharmacologically acceptable salt thereof was evaluated for its inhibition of the protease activity of MALT1 in an in vitro experimental system in accordance with the method described in the literature (Cancer Cell, 2012, Vol. 22, p. 825-837). Specifically, the evaluation was conducted by measuring the degree of reduction in fluorescence value by the compound relative to elevation in fluorescence value resulting from the cleavage of a fluorescently labeled artificial peptide substrate by recombinant MALT1.
A) Preparation of Recombinant GST Fusion MALT1:
Full-length cDNA of human MALT1 gene (GenBank accession No: AB026118.1) amplified by PCR was inserted in flame to a SalI site located downstream of GST gene in a pGEX6P3 vector (GE Healthcare Japan Corp.) to prepare a vector (hereinafter, referred to as a pGEX6P3-MALT1 vector). Subsequently, E. coli for protein expression (BL21-RIL-codon plus-DE3, Agilent Technologies, Inc.) was transformed with the pGEX6P3-MALT1 vector and then analyzed by ampicillin resistance screening and colony PCR to obtain an E. coli strain expressing recombinant GST fusion MALT1. Protein expression was induced with isopropyl-(3-thiogalactopyranoside. After the expression induction, E. coli precipitates were recovered by centrifugation from the E. coli culture solution, and the E. coli precipitates were homogenized and then centrifuged to obtain a supernatant. The supernatant was purified using GSTrap FF column (GE Healthcare Japan Corp.) to obtain recombinant GST fusion MALT1.
B) Evaluation of Inhibition of Protease Activity of MALT1:
To 89 μL of an enzyme solution ([…] GST fusion MALT1, 50 mmol/L MES, 150 mmol/L NaCl, 10% sucrose, 0.1% CHAPS, 10 mmol/L dithiothreitol, and 1 mol/L tri-ammonium citrate) per specimen, 1 μL of a test compound (DMSO-diluted solution) of each concentration was added to prepare a mixed solution. The mixed solution was incubated at room temperature for 30 minutes, followed by the measurement of the fluorescence value of the mixed solution (fluorescence value of the first measurement) (Ex: 380 nm, Em: 460 nm; Envision (Perkin Elmer Inc.)). Next, 10 μL of 200 μmol/L substrate (Ac-LRSR-AMC, SM Biochemicals LLC) was added (final concentration: 20 μmol/L) to the mixed solution, and the mixture was reacted by incubation at 30° C. for 80 minutes, followed by the measurement of the fluorescence value of the reaction solution (fluorescence value of the second measurement) (Ex: 380 nm, Em: 460 nm; Envision (Perkin Elmer Inc.)). A “well nonsupplemented with the test compound (only DMSO was added), nonsupplemented with the enzyme and supplemented with the substrate”, and a “well nonsupplemented with the test compound (only DMSO was added), supplemented with the enzyme and supplemented with the substrate” were established.
The fluorescence value of the first measurement was defined as “F1”, and the fluorescence value of the second measurement was defined as “F2”. F2−F1 of the “well nonsupplemented with the test compound (only DMSO was added), nonsupplemented with the enzyme and supplemented with the substrate” was defined as “Fback”, F2−F1 of the “well nonsupplemented with the test compound (only DMSO was added), supplemented with the enzyme and supplemented with the substrate” was defined as “Fpositive”, and F2−F1 of the “well supplemented with the test compound, supplemented with the enzyme and supplemented with the substrate” was defined as “Fsample”. The rate of inhibition (%) of the protease activity of MALT1 by the test compound was calculated according to the following expression. Rate of inhibition (%)=100×(1−(Fsample−Fback)/(Fpositive−Fback))

`N/C(=N\C(=O)c1ccc(C(F)(F)F)cc1)NCc1cnc(-c2ccc(Cl)cc2)c(-c2ccc(Cl)cc2)c1` [Compound of Example 77, N-(amino(((5,6-bis(4-chlorophenyl)pyridin-3-yl)methyl)amino)methylene)-4-trifluoromethylbenzamide] and `N/C(=N\C(=O)c1ccc(F)cc1)NCc1cnc(-c2ccc(Cl)cc2)c(-c2ccc(Cl)cc2)c1` [Compound of Example 66, N-(amino(((5,6-bis(4-chlorophenyl)pyridin-3-yl)methyl)amino)methylene)-4-fluorobenzamide] are within 1.5-fold of each other in IC50: 817 nM for the first, 1130 nM for the second.

`N/C(=N\C(=O)C1CCCCC1)NCc1cnc(-c2ccc(Cl)cc2)c(-c2ccc(Cl)cc2)c1` [Compound of Example 73, N-(amino(((5,6-bis(4-chlorophenyl)pyridin-3-yl)methyl)amino)methylene)cyclohexanecarboxamide Hydrochloride] and `N/C(=N\C(=O)C1CCCC1)NCc1cnc(-c2ccc(Cl)cc2)c(-c2ccc(Cl)cc2)c1` [Compound of Example 70, N-(amino(((5,6-bis(4-chlorophenyl)pyridin-3-yl)methyl)amino)methylene)cyclopentanecarboxamide] are within 1.5-fold of each other in IC50: 300 nM for the first, 341 nM for the second.

Compared with `N/C(=N\S(=O)(=O)c1ccc(Cl)s1)NCc1cnc(-c2ccc(Cl)cc2)c(-c2ccc(Cl)cc2)c1` [Compound of Example 54, N-(amino(((5,6-bis(4-chlorophenyl)pyridin-3-yl)methyl)amino)methylene)-5-chlorothiophene-2-sulfonamide], `N/C(=N\S(=O)(=O)c1ccco1)NCc1cnc(-c2ccc(Cl)cc2)c(-c2ccc(Cl)cc2)c1` [Compound of Example 31, N-(amino(((5,6-bis(4-chlorophenyl)pyridin-3-yl)methyl)amino)methylene)furan-2-sulfonamide] is 1.7-fold lower in IC50: 169 nM for the first, 102 nM for the second. The second is the more potent here.

`N/C(=N\S(=O)(=O)c1ccc(F)cc1)NCc1cnc(-c2ccc(Cl)cc2)c(-c2ccc(Cl)cc2)c1` [Compound of Example 28, N-(amino(((5,6-bis(4-chlorophenyl)pyridin-3-yl)methyl)amino)methylene)-4-fluorobenzenesulfonamide] and `N#Cc1ccc(S(=O)(=O)/N=C(\N)NCc2cnc(-c3ccc(Cl)cc3)c(-c3ccc(Cl)cc3)c2)cn1` [Compound of Example 52, N-(amino(((5,6-bis(4-chlorophenyl)pyridin-3-yl)methyl)amino)methylene)-6-cyanopyridine-3-sulfonamide] are within 1.5-fold of each other in IC50: 356 nM for the first, 390 nM for the second.

`N/C(=N\S(=O)(=O)c1ccccc1)NCc1cnc(-c2ccc(Cl)cc2)c(-c2ccccc2Cl)c1` [Compound of Example 16, N-(amino(((5-(2-chlorophenyl)-6-(4-chlorophenyl)pyridin-3-yl)methyl)amino)methylene)benzenesulfonamide] and `N/C(=N\S(=O)(=O)c1ccccc1)NCc1cnc(-c2ccc(Cl)cc2)c(-c2ccc(O)cc2)c1` [Compound of Example 94, N-(amino(((6-(4-chlorophenyl)-5-(4-hydroxyphenyl)pyridin-3-yl)methyl)amino)methylene)benzenesulfonamide Hydrochloride] are within 1.5-fold of each other in IC50: 2410 nM for the first, 1610 nM for the second.

Going from `N/C(=N\S(=O)(=O)C1CCCCC1)NCc1cnc(-c2ccc(Cl)cc2)c(-c2ccc(Cl)cc2)c1` [Compound of Example 56, N-(amino(((5,6-bis(4-chlorophenyl)pyridin-3-yl)methyl)amino)methylene)cyclohexanesulfonamide] to `CN(C)C(=O)/N=C(\N)NCc1cnc(-c2ccc(Cl)cc2)c(-c2ccc(Cl)cc2)c1` [Compound of Example 79, 3-(amino(((5,6-bis(4-chlorophenyl)pyridin-3-yl)methyl)amino)methylene)-1,1-dimethylurea], the IC50 rises from 429 nM to 1880 nM (4.4-fold). The first is the more potent here.

Going from `N/C(=N\S(=O)(=O)c1ccccc1)NCc1ncc(-c2ccc(Cl)cc2)c(-c2ccc(Cl)cc2)n1` [Compound of Example 87, N-(amino(((4,5-bis(4-chlorophenyl)pyrimidin-2-yl)methyl)amino)methylene)benzenesulfonamide] to `CN/C(=N\S(=O)(=O)c1ccccc1)NCc1cnc(-c2ccc(Cl)cc2)c(-c2ccc(Cl)cc2)c1` [Compound of Example 40], the IC50 falls from 72 nM to 37 nM (1.9-fold).

First: N/C(=N\S(=O)(=O)c1ccccc1)NCc1cnc(-c2ccc(Cl)cc2)c(-c2ccc(OC(F)(F)F)cc2)c1 [Compound of Example 22, N-(amino(((6-(4-chlorophenyl)-5-(4-(trifluoromethoxy)phenyl)pyridin-3-yl)methyl)amino)methylene)benzenesulfonamide]
Second: N/C(=N\S(=O)(=O)c1ccccc1)NCc1cnc(-c2ccc(OC(F)(F)F)cc2)c(-c2ccc(Cl)cc2)c1 [Compound of Example 10, N-(amino(((5-(4-chlorophenyl)-6-(4-(trifluoromethoxy)phenyl)pyridin-3-yl)methyl)amino)methylene)benzenesulfonamide]
The IC50 of the first is 2.5-fold higher: 745 nM for the first, 297 nM for the second.

Going from `N/C(=N\C(=O)c1cccs1)NCc1cnc(-c2ccc(Cl)cc2)c(-c2ccc(Cl)cc2)c1` [Compound of Example 35, N-(amino(((5,6-bis(4-chlorophenyl)pyridin-3-yl)methyl)amino)methylene)thiophene-2-carboxamide Hydrochloride] to `N/C(=N\C(=O)c1ccco1)NCc1cnc(-c2ccc(Cl)cc2)c(-c2ccc(Cl)cc2)c1` [Compound of Example 78, N-(amino(((5,6-bis(4-chlorophenyl)pyridin-3-yl)methyl)amino)methylene)furan-2-carboxamide], the IC50 rises from 314 nM to 754 nM (2.4-fold). The first is the more potent here.

`COc1ccc(-c2cc(CN/C(N)=N/S(=O)(=O)c3ccccc3)cnc2-c2ccc(Cl)cc2)cc1F` [Compound of Example 37, N-(amino(((6-(4-chlorophenyl)-5-(3-fluoro-4-methoxyphenyl)pyridin-3-yl)methyl)amino)methylene)benzenesulfonamide] and `N#Cc1ccc(-c2cc(CN/C(N)=N/S(=O)(=O)c3ccccc3)cnc2-c2ccc(Cl)cc2)cc1` [Compound of Example 19, N-(amino(((6-(4-chlorophenyl)-5-(4-cyanophenyl)pyridin-3-yl)methyl)amino)methylene)benzenesulfonamide] are within 1.5-fold of each other in IC50: 1270 nM for the first, 1520 nM for the second.

`CC(C)(C(=O)/N=C(\N)NCc1cnc(-c2ccc(Cl)cc2)c(-c2ccc(Cl)cc2)c1)c1ccccc1` [Compound of Example 86, N-(amino(((5,6-bis(4-chlorophenyl)pyridin-3-yl)methyl)amino)methylene)-2-methyl-2-phenylpropanamide] and `N/C(=N\C(=O)c1ccccc1F)NCc1cnc(-c2ccc(Cl)cc2)c(-c2ccc(Cl)cc2)c1` [Compound of Example 67, N-(amino(((5,6-bis(4-chlorophenyl)pyridin-3-yl)methyl)amino)methylene)-2-fluorobenzamide] are within 1.5-fold of each other in IC50: 880 nM for the first, 644 nM for the second.

Compared with `N/C(=N\S(=O)(=O)c1ccccc1)NCc1cnc(-c2ccccc2)c(-c2ccc(C(F)(F)F)cc2)c1` [Compound of Example 92, N-(amino(((6-phenyl-5-(4-(trifluoromethyl)phenyl)pyridin-3-yl)methyl)amino)methylene)benzenesulfonamide], `N#Cc1cccc(S(=O)(=O)/N=C(\N)NCc2cnc(-c3ccc(Cl)cc3)c(-c3ccc(Cl)cc3)c2)c1` [Compound of Example 47, N-(amino(((5,6-bis(4-chlorophenyl)pyridin-3-yl)methyl)amino)methylene)-3-cyanobenzenesulfonamide] is 3.2-fold lower in IC50: 1040 nM for the first, 320 nM for the second. The second is the more potent here.

For `N/C(=N\C(=O)c1nccs1)NCc1cnc(-c2ccc(Cl)cc2)c(-c2ccc(Cl)cc2)c1` [Compound of Example 61, N-(amino(((5,6-bis(4-chlorophenyl)pyridin-3-yl)methyl)amino)methylene)thiazole-2-carboxamide], the IC50 was 408 nM.
